From patent US11447454B2, “Synthesis of benzodiazepine derivatives” (Trio Medicines Limited, priority 2015, dated 2022) come the findings set out here.

The subject of series [1] is increase in H+ concentration of gastric aspirate induced by pentagastrin. Put plainly: Pharmacodynamic effect in healthy subjects (pentagastrin infusion). It counts as in vivo, human. As to the method:
Pentagastrin induces gastric acid secretion, and thereby increases H^+ concentration.
In further clinical studies, in healthy volunteers, single oral doses of 5, 15, 50 and 100 mg of (TR2) or 5, 15, 25 and 50 mg (TR2-A) were administered in conjunction with pentagastrin infusion (i.v. dose 0.6 μg/kg/h for 2 h).
YF476 with pentagastrin infusion.

Series [2] has as its target T1, CCK1 (human) (Homo sapiens, UniProt P32238).
T1 construct: expressed in transfected cells; host or cells: CHO cells
T1 sequence (P32238 1-428): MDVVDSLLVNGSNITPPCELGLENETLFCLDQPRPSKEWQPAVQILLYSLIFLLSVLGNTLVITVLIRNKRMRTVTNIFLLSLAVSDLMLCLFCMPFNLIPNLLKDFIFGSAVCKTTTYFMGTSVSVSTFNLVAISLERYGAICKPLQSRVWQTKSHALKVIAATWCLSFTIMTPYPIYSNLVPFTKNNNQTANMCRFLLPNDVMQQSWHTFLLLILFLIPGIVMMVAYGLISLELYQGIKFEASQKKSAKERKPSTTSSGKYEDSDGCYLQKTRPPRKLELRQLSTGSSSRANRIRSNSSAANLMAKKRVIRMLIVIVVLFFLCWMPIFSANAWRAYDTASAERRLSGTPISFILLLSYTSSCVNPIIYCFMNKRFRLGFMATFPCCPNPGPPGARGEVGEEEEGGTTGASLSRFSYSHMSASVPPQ
Briefly: CCK1 receptor functional assay (antagonist effect, cAMP, HTRF). It counts as cell-based. From the text:
(§1) (TR2) and (TR3) were compared with YF476 and YM022 in CCK1 and CCK2 receptor functional assays with the following assay criteria.
The potency of the antagonists is expressed as IC50, the concentration of antagonist that causes a half-maximum inhibition of the control agonist response. The affinity of the antagonist for the receptor is expressed as KB, the concentration of antagonist, which would occupy 50% of the receptors at equilibrium.
In general terms: Time-resolved FRET reads energy transfer from a long-lived donor to a nearby acceptor.

Series [3] concerns the target T2, CCK2 (human) (Homo sapiens, UniProt P32239).
T2 construct: expressed in transfected cells; host or cells: CHO cells
T2 sequence (P32239 1-447): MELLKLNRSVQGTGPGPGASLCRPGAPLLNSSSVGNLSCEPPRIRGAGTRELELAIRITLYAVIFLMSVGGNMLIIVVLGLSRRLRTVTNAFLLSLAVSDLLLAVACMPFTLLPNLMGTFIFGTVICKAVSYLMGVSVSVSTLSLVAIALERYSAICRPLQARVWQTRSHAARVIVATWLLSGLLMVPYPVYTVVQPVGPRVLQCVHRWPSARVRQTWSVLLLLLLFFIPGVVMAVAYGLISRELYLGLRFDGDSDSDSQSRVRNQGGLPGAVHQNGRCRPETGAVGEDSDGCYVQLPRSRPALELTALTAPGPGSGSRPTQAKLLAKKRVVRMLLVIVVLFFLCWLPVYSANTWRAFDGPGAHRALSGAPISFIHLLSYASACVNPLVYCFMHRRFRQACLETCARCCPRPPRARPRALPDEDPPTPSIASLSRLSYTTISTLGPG
Put plainly: CCK2 receptor functional assay (antagonist effect, cAMP, HTRF). The format is cell-based.
Description: as §1
Furthermore, the selectivity of (TR2) for the CCK2 receptor over the CCK1 receptor was 30% higher than the selectivity of YF476. The potency of the antagonists is expressed as IC50, the concentration of antagonist that causes a half-maximum inhibition of the control agonist response. The affinity of the antagonist for the receptor is expressed as KB, the concentration of antagonist, which would occupy 50% of the receptors at equilibrium.

Series [4] deals with panel of 80 receptors. Briefly: Receptor binding screen, radiolabelled ligands. The note with it: scintillation counting; other than CCK2 and CCK1. As to the method:
The potential of (TR2) and (TR3) to bind to other cellular and nuclear receptors was tested in a panel of 80 receptors. The assay used radiolabelled receptor ligands (agonist or antagonist, depending on the receptor), and the ability of the test compounds to inhibit ligand binding was measured by scintillation counting.

Series [5] has as its system AGSGR cells. Briefly: Sulphorhodamine-B (SRB) proliferation assay. The format is cell-based, human. The note with it: G17 10 nM. As to the method: The potency of (TR2) and (TR3) was tested in a sulphorhodamine-B (SRB) proliferation assay in a human gastric adenocarcinoma cell line stably transfected with the human gastrin/CCK2 receptor gene (AGSGR). SRB is a fluorescent dye that binds to proteins, so cells with a high rate of protein synthesis (proliferative cells) will show high levels of fluorescence in the SRB assay. The gastrin fragment G17 has an anti-proliferative effect on AGSGR cells. So, when treated with G17, the cells show lower levels of fluorescence in the SRB assay. (TR2) and (TR3) were compared with the positive controls YF476 and YM022. […] None of the compounds tested affected AGSGR cell proliferation in the absence of G17.
Background: The SRB assay estimates cell density from bound dye.

Series [6] is described as follows: Morphology studies (crystallisation attempts, XRPD). The format is physicochemical. An excerpt: This is indicative of an advantage over YF476 in terms of the formulation of a suitable pharmaceutical composition. YF476 is crystalline, which contributes to poor solubility and bioavailability. Amorphous YF476 can be used to increase bioavailability, but requires stabilization, which can be achieved as a solid dispersion on hydroxypropyl methyl cellulose by spray-drying.

Series [7] in a line: Pharmacokinetics in healthy subjects. The note with it: human, in vivo, po. How it is done: In an initial study, healthy volunteers took a single oral dose of 100 mg (TR2) as an active pharmaceutical ingredient (API) in a capsule. Plasma concentrations were measured.
In further clinical studies, healthy volunteers (n=8) took single oral doses of 5, 15, 50 and 100 mg (TR2) as an active pharmaceutical ingredient (API) in a capsule. Plasma concentrations were measured.
Healthy volunteers (n=8) took single oral doses of 5, 15, 25 and 50 mg (TR2-A) as API in a capsule (TR2-A (crystalline) in hard gelatin capsules with no excipient, no processing of the API). Plasma concentrations of (TR2) and (TR2-A) were measured. The area under the curve of plasma concentrations of (TR2) after a single oral dose of 50 mg of (TR2-A) API (AUC0-24 h=212.5) was about the same as that observed for a similar formulation of a single oral dose of (TR2) 100 mg (AUC0-24 h=241.5). […] Moreover, the plasma concentrations of (TR2-A) were low (AUC0-24 h<10), showing that (TR2-A) is acting as a prodrug for (TR2).

Series [8] in a line: Solubility study in Britton-Robinson's buffer (HPLC-UV). The format is physicochemical. How it is done: The test compound (2.5 mg of solid; n=1) was weighed in a clear glass vial and Britton-Robinson's buffer (0.5 mL) was added (pH 2.01, pH 3.06, pH 4.06, pH 5.08, pH 5.99, pH 6.98, and pH 8.16). The solution was agitated at ambient temperature overnight using a vial roller system, and then filtered (0.45 µm pore size; without pre-saturation). Two aliquots (50 μL) were sampled from the filtrate and diluted with one volume of 0.1 N hydrochloric acid and methanol (1:1 v/v) before analysis by HPLC-UV. A standard was prepared in DMSO at 10 mg/mL (n=1) which was then diluted 10-fold in 0.1 N hydrochloric acid and methanol (1:1 v/v) to give a 1 mg/mL solution. The concentration of test compound in the filtrate was quantified relative to the concentration standard.
Analysis was done using a gradient HPLC-UV system with a total cycle time of 6 min. The UV detection between 220 nm and 300 nm was done using a photodiode array detector. Total response was monitored.
The values given in the table above are for crystalline YF476 and (TR2-A) and amorphous (TR1).

For `CNc1cccc(NC(=O)N[C@@H]2N=C(c3ccccn3)c3ccccc3N(CC(=O)C(C)(C)COC(C)=O)C2=O)c1` [TR2-A, (R)-1-[1-(4-Acetoxy-3,3-dimethyl-2-oxo-butyl)-2-oxo-5-pyridin-2-yl-2,3-dihydro-1H-benzo[e][1,4]diazepin-3-yl]-3-(3-methylamino-phenyl)-urea], in series [1], the “potency as a CCK2 receptor antagonist in healthy subjects (in words)” value is “greater than that of both (TR2) and YF476”.
Turning to `CNc1cccc(NC(=O)N[C@H]2N=C(c3ccccn3)c3ccccc3N(CC(=O)C(C)(C)CO)C2=O)c1` [TR3], the “CCK1 receptor antagonism (in words)” value in series [2] is “less potent CCK1 receptor antagonists”. The “CCK2 receptor antagonism (in words)” value in series [3] was “potent CCK2 receptor antagonists”. Further, in series [4], the “inhibition of ligand binding in panel of 80 receptors” value is reported as “No significant receptor binding”. In addition, the “inhibition of the anti-proliferative effects of G17” value (“inhibition … of G17” for short) in series [5] (compound 500 nM) is on record as “had the same effect”. Further, the preferred solid state result in series [6] is “prefer an amorphous state over a crystalline state”.
On to `CNc1cccc(NC(=O)N[C@@H]2N=C(c3ccccn3)c3ccccc3N(CC(=O)C(C)(C)CO)C2=O)c1` [TR2, (R)-1-[1-(4-Hydroxy-3,3-dimethyl-2-oxo-butyl)-2-oxo-5-pyridin-2-yl-2,3-dihydro-1H-benzo[e][1,4]diazepin-3-yl]-3-(3-methylamino-phenyl)-urea], for which the “CCK1 receptor antagonism (in words)” value in series [2] is “less potent CCK1 receptor antagonists”. For the same compound, in series [3], the “CCK2 receptor antagonism (in words)” value was “potent CCK2 receptor antagonists” and the “selectivity for the CCK2 receptor over the CCK1 receptor higher than the selectivity of YF476” value came to 30%. Moreover, in series [3] (IC50 compared), the “less potent than YF476 and YM022 in the CCK2 assay” value was “about 5 fold”. Moreover, in series [3] (KB compared), the “affinity for the CCK2 receptor lower than that of YF476” value is recorded as “about 5 fold” and the “affinity for the CCK2 receptor relative to YM022” value was “twice”. For the same compound, the “inhibition of ligand binding in panel of 80 receptors” value in series [4] is recorded as “No significant receptor binding”. Besides, in series [5] (compound 100 nM), the “inhibition … of G17” value was “completely inhibited”. Further, in series [7], the “AUC relative to YF476 100 mg” value was “about twice”. Also, in series [6], the preferred solid state result is given as “prefer an amorphous state over a crystalline state” and the “solid state by XRPD analysis” value was “amorphous state”.
As to `Cc1cccc(NC(=O)N[C@@H]2N=C(c3ccccc3)c3ccccc3N(CC(=O)c3ccccc3C)C2=O)c1` [YM022, reference compound], in series [5] (compound 100 nM), the “inhibition … of G17” value is recorded as “completely inhibited”.
With `CNc1cccc(NC(=O)N[C@@H]2N=C(c3ccccn3)c3ccccc3N(CC(=O)C(C)(C)C)C2=O)c1` [YF476, reference compound], in series [5] (compound 100 nM), the “inhibition … of G17” value is “completely inhibited”.
Regarding `CNc1cccc(NC(=O)NC2N=C(c3ccccn3)c3ccccc3N(CC(=O)C(C)(C)CO)C2=O)c1` (racemic) [TR1], the “aqueous solubility compared (in words)” value in series [8] is “more soluble in aqueous solution than YF476”. Also, the preferred solid state result in series [6] is “prefer an amorphous state over a crystalline state”.
